Reference: patent publication US12692238B2, “Substituted pyridazinone herbicides” (FMC CORPORATION, priority 2020, dated 2026)

Columns and labels:
Type in all cases: in vivo
[1] = tested on: goosegrass (Eleusine indica); experiment: Test A preemergence, goosegrass; conditions: 0 to 100 scale, 10 days
Text: (§1) Seeds of plant species selected from barnyardgrass (Echinochloa crus-galli), blackgrass (Alopecurus myosuroides), corn (Zea mays), foxtail, giant (giant foxtail, Setaria faberi), foxtail, green (green foxtail, Setaria viridis), goosegrass (Eleusine indica), kochia (Bassia scoparia), oat, wild (wild oat, Avena fatua), palmer amaranth (pigweed, palmer, Amaranthus palmeri), redroot pigweed (Amaranthus retroflexus), ragweed (common ragweed, Ambrosia artemisiifolia), ryegrass, Italian (Italian ryegrass, Lolium multiflorum), and soybean (Glycine max) were planted into a blend of loam soil and sand and treated preemergence with a directed soil spray using test chemicals formulated in a non-phytotoxic solvent mixture which included a surfactant.
(§2) At the same time, plants selected from these crop and weed species and also wheat (Triticum aestivum), galium (catchweed bedstraw, Galium aparine) and horseweed (Erigeron canadensis) were planted in pots containing the same blend of loam soil and sand and treated with postemergence applications of test chemicals formulated in the same manner. Plants ranged in height from 2 to 10 cm and were in the one- to two-leaf stage for the postemergence treatment. Treated plants and untreated controls were maintained in a greenhouse for 10 days, after which time all treated plants were compared to untreated controls and visually evaluated for injury. Plant response ratings, summarized in Table A, are based on a 0 to 100 scale where 0 is no effect and 100 is complete control. A dash (-) response means no test result.

rice (Oryza sativa) = experiment: Test B flooded paddy test, rice; conditions: 250 g ai/ha, Flood; visually evaluated after 10 to 14 days
How it was run: (§3)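 Water-applied treatment of 2-leaf plants in pots kept flooded at 3 cm. Visual control rating (0–100) against untreated plants after 10–14 greenhouse days.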

soybean (Glycine max) [2] = experiment: Test A preemergence, soybean; conditions: 0 to 100 scale, 10 days
Text: as §1, §2

[3] = tested on: palmer amaranth (pigweed, palmer, Amaranthus palmeri); experiment: Test A preemergence, palmer amaranth; conditions: 0 to 100 scale, 10 days
Text: as §1, §2

[4] = tested on: ducksalad (Heteranthera limosa); experiment: Test B flooded paddy test, ducksalad; conditions: 250 g ai/ha, Flood; visually evaluated after 10 to 14 days
How it was run: as §3

[5] = tested on: foxtail, giant (giant foxtail, Setaria faberi); experiment: Test A preemergence, foxtail, giant; conditions: 0 to 100 scale, 10 days
How it was run: (§4)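 Visual injury rating on a 0–100 scale (100 = complete control) versus untreated plants after 10 days in greenhouse. Treatments: directed soil spray preemergence after sowing in loam/sand, or postemergence on one- to two-leaf plants 2–10 cm high; surfactant-containing non-phytotoxic solvent formulation.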

[6] = tested on: wheat (Triticum aestivum); experiment: Test A postemergence, wheat; conditions: 10 days
How it was run: as §4

[7] = tested on: ragweed (common ragweed, Ambrosia artemisiifolia); experiment: Test A postemergence, ragweed; conditions: 10 days
How it was run: as §4

[8] = tested on: ryegrass, Italian (Italian ryegrass, Lolium multiflorum); experiment: Test A postemergence, ryegrass, Italian; conditions: 10 days
How it was run: as §4

corn (Zea mays) [9] = experiment: Test A preemergence, corn; conditions: 0 to 100 scale, 10 days
Text: as §1, §2

[10] = tested on: oat, wild (wild oat, Avena fatua); experiment: Test A postemergence, oat, wild; conditions: 10 days
Text: as §1, §2

[11] = tested on: wheat (Triticum aestivum); experiment: Test A preemergence, wheat; conditions: 125 g ai/ha, 0 to 100 scale, 10 days
[12] = tested on: horseweed (Erigeron canadensis); experiment: Test A postemergence, horseweed; conditions: Postemergence, 125 g ai/ha; 0 to 100 scale, 10 days
Text: as §1, §2

[13] = tested on: ragweed (common ragweed, Ambrosia artemisiifolia); experiment: Test A preemergence, ragweed; conditions: 0 to 100 scale, 10 days
How it was run: as §4

[14] = tested on: sedge, umbrella (small-flower umbrella sedge, Cyperus difformis); experiment: Test B flooded paddy test, sedge, umbrella; conditions: 250 g ai/ha, Flood; visually evaluated after 10 to 14 days
How it was run: as §3

[15] = tested on: goosegrass (Eleusine indica); experiment: Test A postemergence, goosegrass; conditions: 10 days
Text: as §1, §2

[16] = tested on: foxtail, giant (giant foxtail, Setaria faberi); experiment: Test A postemergence, foxtail, giant; conditions: 10 days
How it was run: as §4

soybean (Glycine max) [17] = experiment: Test A postemergence, soybean; conditions: 10 days
Text: as §1, §2

corn (Zea mays) [18] = experiment: Test A postemergence, corn; conditions: 10 days
How it was run: as §4

[19] = tested on: barnyardgrass (Echinochloa crus-galli); experiment: Test B flooded paddy test, barnyardgrass; conditions: 250 g ai/ha, Flood; visually evaluated after 10 to 14 days
How it was run: as §3

kochia (Bassia scoparia) [20] = experiment: Test A postemergence, kochia; conditions: 10 days
How it was run: as §4

[21] = tested on: oat, wild (wild oat, Avena fatua); experiment: Test A preemergence, oat, wild; conditions: 0 to 100 scale, 10 days
Text: as §1, §2

kochia (Bassia scoparia) [22] = experiment: Test A preemergence, kochia; conditions: 0 to 100 scale, 10 days
How it was run: as §4

[23] = tested on: palmer amaranth (pigweed, palmer, Amaranthus palmeri); experiment: Test A postemergence, palmer amaranth; conditions: 10 days
Text: as §1, §2

[24] = tested on: ryegrass, Italian (Italian ryegrass, Lolium multiflorum); experiment: Test A preemergence, ryegrass, Italian; conditions: 0 to 100 scale, 10 days
How it was run: as §4

[25] = tested on: galium (catchweed bedstraw, Galium aparine); experiment: Test A postemergence, galium; conditions: 10 days
How it was run: as §4

[26] = tested on: blackgrass (Alopecurus myosuroides); experiment: Test A postemergence, blackgrass; conditions: 10 days
How it was run: as §4

[27] = tested on: blackgrass (Alopecurus myosuroides); experiment: Test A preemergence, blackgrass; conditions: 0 to 100 scale, 10 days
Text: as §1, §2

[28] = 31 g ai/ha, postemergence, 0 to 100 scale (0 no effect, 100 complete control)
[29] = Postemergence, 125 g ai/ha, 0 to 100 scale

Cc1ccc2cc3ccc(C)cc3c(-c3c(OCOC(=O)N(C)C)c(Cl)nn(C)c3=O)c2c1 [Compound 18]
40: Plant response rating, Pigweed, Palmer ([3]; 125 g ai/ha) | Plant response rating, Kochia (kochia (Bassia scoparia) [20]; [28])
100: Plant response rating, Ragweed [7, 29]
70: Plant response rating, Kochia (kochia (Bassia scoparia) [20]; [29])
30: Plant response rating, Ragweed [7, 28] | Plant response rating, Pigweed, Palmer [23, 28] | Plant response rating, Galium [25, 29]
20: Plant response rating, Horseweed [12] | Plant response rating, Soybean (soybean (Glycine max) [17]; [29])
0: Plant response rating, Goosegrass ([1]; 31 g ai/ha) | Plant response rating, Goosegrass ([1]; 125 g ai/ha) | Plant response rating, Rice (0 to 100 scale where 0 is no effect and 100 is complete control) (rice (Oryza sativa)) | Plant response rating, Soybean (soybean (Glycine max) [2]; 31 g ai/ha) | Plant response rating, Soybean (soybean (Glycine max) [2]; 125 g ai/ha) | Plant response rating, Pigweed, Palmer ([3]; 31 g ai/ha) | Plant response rating, Ducksalad (0 to 100 scale where 0 is no effect and 100 is complete control) [4] | Plant response rating, Foxtail, Giant ([5]; 31 g ai/ha) | Plant response rating, Foxtail, Giant ([5]; 125 g ai/ha) | Plant response rating, Wheat [6, 28] | Plant response rating, Wheat [6, 29] | Plant response rating, Ryegrass, Italian [8, 28] | Plant response rating, Ryegrass, Italian [8, 29] | Plant response rating, Corn (corn (Zea mays) [9]; 31 g ai/ha) | Plant response rating, Corn (corn (Zea mays) [9]; 125 g ai/ha) | Plant response rating, Oat, Wild [10, 28] | Plant response rating, Oat, Wild [10, 29] | Plant response rating, Wheat [11] | Plant response rating, Ragweed ([13]; 31 g ai/ha) | Plant response rating, Ragweed ([13]; 125 g ai/ha) | Plant response rating, Goosegrass [15, 28] | Plant response rating, Goosegrass [15, 29] | Plant response rating, Foxtail, Giant [16, 28] | Plant response rating, Foxtail, Giant [16, 29] | Plant response rating, Soybean (soybean (Glycine max) [17]; [28]) | Plant response rating, Corn (corn (Zea mays) [18]; [28]) | Plant response rating, Corn (corn (Zea mays) [18]; [29]) | Plant response rating, Barnyardgrass (0 to 100 scale where 0 is no effect and 100 is complete control) [19] | Plant response rating, Oat, Wild ([21]; 31 g ai/ha) | Plant response rating, Oat, Wild ([21]; 125 g ai/ha) | Plant response rating, Kochia (kochia (Bassia scoparia) [22]; 31 g ai/ha) | Plant response rating, Kochia (kochia (Bassia scoparia) [22]; 125 g ai/ha) | Plant response rating, Ryegrass, Italian ([24]; 31 g ai/ha) | Plant response rating, Ryegrass, Italian ([24]; 125 g ai/ha) | Plant response rating, Galium [25, 28] | Plant response rating, Blackgrass [26, 28] | Plant response rating, Blackgrass [26, 29] | Plant response rating, Blackgrass ([27]; 31 g ai/ha) | Plant response rating, Blackgrass ([27]; 125 g ai/ha)
50: Plant response rating, Pigweed, Palmer [23, 29]
15: Plant response rating, Sedge, Umbrella (0 to 100 scale where 0 is no effect and 100 is complete control) [14]
